According to patent US7647217B2, “Structure of the farnesoid X receptor ligand binding domain and methods of use therefor” (The Salk Institute for Biological Studies, priority 2002, dated 2010):

Target: T1, GAL4-FXR LBD (Rattus norvegicus, UniProt Q62735)
T1 construct: expressed in transfected cells; host or cells: CV-1 (monkey)
T1 sequence (Q62735 245-469 limits assumed): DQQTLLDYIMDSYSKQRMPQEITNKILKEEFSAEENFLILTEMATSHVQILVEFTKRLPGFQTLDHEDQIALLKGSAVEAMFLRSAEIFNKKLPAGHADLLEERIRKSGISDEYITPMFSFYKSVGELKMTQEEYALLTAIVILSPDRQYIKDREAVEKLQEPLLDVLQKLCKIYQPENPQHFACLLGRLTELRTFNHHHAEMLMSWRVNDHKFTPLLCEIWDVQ
Assay: GAL4 DBD-FXR LBD chimeric receptor transcriptional activation assay (with/without RXR)
Type: cell-based
Conditions: for activation of chimeric FXR construct: in the presence and absence of RXR; for selectivity for FXR relative to other NHRs: chimeric NHR constructs; for efficacy compared with GW4064: in the absence of RXR
Experimental: FIGS. 3A-3E collectively show the results of ligand activation of CV-1 cells co-transfected with a luciferase reporter gene with a variety of receptor expression constructs. […] FIGS. 3C-3E show the results of CV-1 cells transiently transfected with the indicated reporter constructs, treated with either DMSO or 10 μM of the compounds fexaramine (3C), fexarine (3D), fexarene (3E). Reporter activity was normalized to the internal control and the data plotted as fold activation relative to untreated cells. All transfections contained CMX-βgal as an internal control.
The expression plasmids pCMX, pCMX-LacZ, pCMX-mFXRFL, pCMX-hRXRFL, pCMX-GALDBD-rFXRLBD and other pCUX-GALDBD-NR LBDs (hRXRα, hPPARαγδ, mPXR, hPXR, hLXRα, HTRβ, hRARβ, mCAR, mERR3 and hVDR) have been described elsewhere (Blumberg et al. (1998). SXR, a novel steroid and xenobiotic-sensing nuclear receptor. Genes Dev. 12(20), 3195-205). The reporter plasmids pMH2004-TK-luc, pTKECRE*6-luc, pTKER-8*2-luc and pMRP-2-luc also have been described elsewhere. The hPLTP-luc promoter was kindly provided by Dr Dennis Dowhan and the hIBABP-luc promoter was created from a plasmid provided by Dr Philippe Besnard.
For transfection of these constructs, monkey CV-1 HEPG2 and HEK293T cells were grown in DMEM supplemented with 10% FBS, 50 U/ml penicillin G, and 50 μg/ml streptomycin sulfate at 37° C. in 7% CO2. CV-1 cells (60%-70% confluence, 48-well plate) were cotransfected with 16.6 ng of the appropriate expression vector, 100 ng of reporter plasmid, and 100 ng of pCMX-LacZ in 200 μl of DMEM containing 10% FBS by the N-[1-(2,3-dioleoyloxy)propyl]-N,N,N-trimethylammonium methylsulfate (DOTAP)-mediated procedure. After 24 hr, the medium was replaced, and cells were harvested and assayed for luciferase activity 36-48 hr after transfection. The luciferase activity was normalized to the level of β-galactosidase activity. Each transfection was performed in triplicate and repeated at least three times.
Cell-based transcriptional activation assays using chimeric nuclear hormone receptor (NHR) constructs were established to measure the selectivity of the compounds to FXR relative to other NHRs (Forman et al. (1995). Identification of a nuclear receptor that is activated by farnesol metabolites. Cell 81, 687-693). These assays used fusion proteins with the yeast GAL4 DNA binding domain connected to the ligand-binding domain (LBD) of NHRs. These constructs were co-transfected with a thymidine kinase C minimal promoter reporter vector containing four copies of the GAL4 binding site. Titration experiments were then performed using the identified compounds. […] Addition of RXR had no effect on the activation potential of fexaramine, fexarine, fexarene in this assay.

| Compound | activation of chimeric FXR construct | effect of addition of RXR on activation potential | selectivity for FXR relative to other NHRs | efficacy compared with GW4064 |
| --- | --- | --- | --- | --- |
| CC(C)c1onc(-c2c(Cl)cccc2Cl)c1COc1ccc(/C=C/c2cccc(C(=O)O)c2)c(Cl)c1 [GW4064, reference compound] | activate |  |  |  |
| COC(=O)/C=C/c1cccc(N(Cc2ccc(-c3ccc(N(C)C)cc3)cc2)C(=O)C2CCCCC2)c1 [fexaramine] | activate | no effect | highly selective for FXR | more efficacious ligands for FXR than GW4064 |
| COC(=O)/C=C/c1cccc(N(Cc2ccc(/C=C/c3ccccc3)cc2)C(=O)C2CCCCC2)c1 [fexarene] | activate | no effect | highly selective for FXR | more efficacious ligands for FXR than GW4064 |
| COC(=O)/C=C/c1cccc(N(Cc2ccc(-c3ccc4c(c3)OCO4)cc2)C(=O)C2CCCCC2)c1 [fexarine] | activate | no effect | highly selective for FXR | more efficacious ligands for FXR than GW4064 |

More lines, main results first:

| activation of chimeric FXR construct | effect of addition of RXR on activation potential | selectivity for FXR relative to other NHRs | Compound | efficacy compared with GW4064 |
| --- | --- | --- | --- | --- |
| little or no activity |  |  | COC(=O)/C=C/c1cccc(N(Cc2ccc(-c3ccccc3OC)cc2)C(=O)C(C)C)c1 [SRI-1] |  |
| little or no activity |  |  | COC(=O)/C=C/c1cccc(N(Cc2ccc(-c3ccc(C(C)(C)C)cc3)cc2)C(=O)C(C)C)c1 [SRI-2] |  |
